Experimental data: the supplement of paper PMC10307832

Tests used:
Assay in all cases: relative viability (nuclei count vs DMSO), 5 days (fraction); higher = more cells survive
Vorinostat + Tozasertib = compound: O=C(CCCCCCC(=O)Nc1ccccc1)NO [Vorinostat] + Cc1cc(Nc2cc(N3CCN(C)CC3)nc(Sc3ccc(NC(=O)C4CC4)cc3)n2)n[nH]1 [Tozasertib] (partner 0.1 µM)
Procedure, shortened: (§1)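 Medians of duplicate plates are given as relative viability. That measure is the nuclei count in treated wells divided by the count in vehicle wells. Counts were taken on 4× images of lung cancer cell lines in 1536-well plates, 5 days after pin-tool dosing the day after seeding with one drug alone or a fixed anchor-drug dose plus five library-drug doses (not always all listed) in √10 steps.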

Vorinostat + Crizotinib = compound: O=C(CCCCCCC(=O)Nc1ccccc1)NO [Vorinostat] + C[C@@H](Oc1cc(-c2cnn(C3CCNCC3)c2)cnc1N)c1c(Cl)ccc(F)c1Cl [Crizotinib] (partner 1 µM)
Procedure, shortened: as §1

Vorinostat + Dasatinib = compound: O=C(CCCCCCC(=O)Nc1ccccc1)NO [Vorinostat] + Cc1nc(Nc2ncc(C(=O)Nc3c(C)cccc3Cl)s2)cc(N2CCN(CCO)CC2)n1 [Dasatinib] (partner 0.075 µM)
Procedure, shortened: as §1

Vorinostat + Linsitinib = compound: O=C(CCCCCCC(=O)Nc1ccccc1)NO [Vorinostat] + C[C@]1(O)C[C@@H](c2nc(-c3ccc4ccc(-c5ccccc5)nc4c3)c3c(N)nccn32)C1 [Linsitinib] (partner 1 µM)
Procedure, shortened: as §1

Vorinostat + OSI-027 = compound: O=C(CCCCCCC(=O)Nc1ccccc1)NO [Vorinostat] + COc1cccc2cc(-c3nc([C@H]4CC[C@H](C(=O)O)CC4)n4ncnc(N)c34)[nH]c12 [OSI-027] (partner 0.5 µM)
Procedure, shortened: as §1

Cell Line	relative viability (Vorinostat + Tozasertib; first compound 0.253 µM)	relative viability (Vorinostat + Tozasertib; first compound 0.8 µM)	relative viability (Vorinostat + Tozasertib; first compound 2.53 µM)	relative viability (Vorinostat + Tozasertib; first compound 8 µM)	relative viability (Vorinostat + Crizotinib; first compound 0.253 µM)	relative viability (Vorinostat + Crizotinib; first compound 0.8 µM)	relative viability (Vorinostat + Crizotinib; first compound 2.53 µM)	relative viability (Vorinostat + Crizotinib; first compound 8 µM)	relative viability (Vorinostat + Dasatinib; first compound 0.253 µM)	relative viability (Vorinostat + Dasatinib; first compound 0.8 µM)	relative viability (Vorinostat + Dasatinib; first compound 2.53 µM)	relative viability (Vorinostat + Dasatinib; first compound 8 µM)	relative viability (Vorinostat + Linsitinib; first compound 0.253 µM)	relative viability (Vorinostat + Linsitinib; first compound 0.8 µM)	relative viability (Vorinostat + Linsitinib; first compound 2.53 µM)	relative viability (Vorinostat + Linsitinib; first compound 8 µM)	relative viability (Vorinostat + OSI-027; first compound 0.253 µM)	relative viability (Vorinostat + OSI-027; first compound 0.8 µM)	relative viability (Vorinostat + OSI-027; first compound 2.53 µM)	relative viability (Vorinostat + OSI-027; first compound 8 µM)
COR-L23	0.19	0.0976	0.105	0.0594	0.542	0.25	0.0669	0.0606	0.501	0.291	0.0778	0.0572	0.899	0.468	0.0916	0.0663	0.842	0.396	0.151	0.0835
NCI-H2087	0.262	0.14	0.0617	0.0825	0.838	0.727	0.236	0.177	0.94	0.553	0.124	0.0691	0.974	1.03	0.474	0.159	0.746	0.417	0.106	0.063
NCI-H23	0.275	0.269	0.105	0.124	0.525	0.381	0.102	0.116	0.922	0.671	0.41	0.0961	0.866	0.711	0.21	0.124	0.595	0.338	0.329	0.118
ABC-1	0.203	0.198	0.18	0.112	1.11	0.383	0.131	0.0777	0.531	0.41	0.221	0.131	1	0.505	0.331	0.106	0.491	0.352	0.159	0.102
SW 1573	0.19	0.266	0.155	0.0644	0.845	0.665	0.297	0.156	0.593	0.789	0.112	0.0513	0.986	0.978	0.421	0.13	1.1	0.633	0.183	0.051
NCI-H1703	–	–	–	–	0.977	0.716	0.298	0.113	–	–	–	–	1.14	0.846	0.953	0.206	–	–	–	–
NCI-H2126	0.731	0.444	0.212	0.171	0.961	1.01	0.538	0.203	0.608	0.566	0.216	0.158	0.581	0.68	0.456	0.224	0.761	0.572	0.506	0.209
SK-MES-1	0.86	0.662	0.235	0.136	1.13	1.06	0.495	0.157	0.566	0.657	0.197	0.148	1.09	1.02	0.495	0.21	0.72	0.664	0.199	0.149
SK-LU-1	0.303	0.186	0.143	0.101	0.921	0.672	0.43	0.164	0.192	0.208	0.133	0.0924	1.11	1.02	0.64	0.211	0.407	0.377	0.204	0.116
